Measurements: patent US20120295845A1, “IMIDAZO-PYRAZOLES AS GPR119 INHIBITORS” (Pfizer Inc, priority 2009, published 2012)
Values joined by “and” are separate entries in the source; they are usually repeats but may differ in a detail not shown here. Identical values can stand only once.

Target: T1, human GPR119 (Homo sapiens, UniProt Q8TDV5)
T1 construct: host or cells: HEK293-CRE beta-lactamase cells
T1 sequence (Q8TDV5 1-335): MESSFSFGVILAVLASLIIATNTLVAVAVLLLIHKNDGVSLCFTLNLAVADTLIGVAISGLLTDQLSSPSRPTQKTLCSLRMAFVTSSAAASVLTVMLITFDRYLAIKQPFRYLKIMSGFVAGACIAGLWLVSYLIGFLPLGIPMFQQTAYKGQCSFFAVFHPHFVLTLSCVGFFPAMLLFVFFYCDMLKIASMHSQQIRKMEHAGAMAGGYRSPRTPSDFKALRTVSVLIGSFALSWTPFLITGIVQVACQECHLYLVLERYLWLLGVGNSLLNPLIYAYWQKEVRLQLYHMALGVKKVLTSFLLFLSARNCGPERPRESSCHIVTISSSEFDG
Experiment: cAMP functional assay (HTRF, hGPR119 HEK-CRE beta-lactamase cells)
Type: cell-based
Conditions: one value per run; for EC50: hGPR119 HEK-CRE beta-lactamase cells, HTRF cAMP, 30 min incubation with IBMX; for Intrinsic Activity* (cAMP) / Emax: percent of maximal activity relative to standard GPR119 agonist (WO2005121121) at 10 μM; for Emax: read-out: Intrinsic Activity* (cAMP)
Protocol: GPR119 agonist activity was also determined with a cell-based assay utilizing an
HTRF (Homogeneous Time-Resolved Fluorescence) cAMP detection kit (cAMP dynamic 2 Assay Kit; Cis Bio cat # 62AM4PEC) that measures cAMP levels in the cell. The method is a competitive immunoassay between native cAMP produced by the cells and the cAMP labeled with the dye d2. The tracer binding is visualized by a Mab anti-cAMP labeled with Cryptate. The specific signal (Le. energy transfer) is inversely proportional to the concentration of cAMP in either standard or sample.
Specifically, hGPR119 HEK-CRE beta-lactamase cells (Invitrogen 2.5×10^7/mL; the same cell line used in the beta-lactamase assay described above) are removed from cryopreservation and diluted in growth medium (Dulbecco's modified Eagle medium high glucose (DMEM; Gibco Cat # 11995-065), 1% charcoal dextran treated fetal bovine serum (CD serum; HyClone Cat # SH30068.03), lx MEM Nonessential amino acids (Gibco Cat # 15630-080) and 25 mM HEPES pH 7.0 (Gibco Cat # 15630-080)). The cell concentration was adjusted to 1.5×10^5 cells/mL and 30 mLs of this suspension was added to a T-175 flask and incubated at 37 degrees Celsius in a humidified environment in 5% carbon dioxide. After 16 hours (overnight), the cells were removed from the T-175 flask (by rapping the side of the flask), centrifuged at 800×g and then re-suspended in assay medium (1×HBSS+CaCl2+MgCl2 (Gibco Cat # 14025-092) and 25 mM HEPES pH 7.0 (Gibco Cat # 15630-080)). The cell concentration was adjusted to 6.25×10^5 cells/mL with assay medium and 8 μl of this cell suspension (5000 cells) was added to each well of a white Greiner 384-well, low-volume assay plate (VWR cat # 82051-458).
Varying concentrations of each compound to be tested were diluted in assay buffer containing 3-isobutyl-1-methylxanthin (1BMX; Sigma cat #15879) and added to the assay plate weds in a volume of 2 microL (final BMX concentration was 400 microM and final DMSO concentration was 0.58%). Following 30 minutes incubation at room temperature, 5 microL of labeled d2 cAMP and 5 microL of anti-cAMP antibody (both diluted 1:20 in cell lysis buffer; as described in the manufacturers assay protocol) were added to each well of the assay plate. The plates were then incubated at room temperature and after 60 minutes, changes in the HTRF signal were read with an Envision 2104 multilabel plate reader using excitation of 330 nm and emissions of 615 and 665 nm. Raw data were converted to nM cAMP by interpolation from a cAMP standard curve (as described in the manufacturer's assay protocol) and EC50 determinations were made from an agonist-response curves analyzed with a curve fitting program using a 4-paramter logistic dose response equation.

Row | EC50 | Intrinsic Activity* (cAMP) | Emax [%] | SMILES
1 |  | 27% | 28 | Cc1c(OC2CCN(C(=O)OC(C)C)CC2)ncnc1N1CCn2nccc21 [Example 1, Isopropyl 4-{[6-(2,3-dihydro-1H-imidazo[1,2-b]pyrazol-1-yl)-5-methylpyrimidin-4-yl]oxy}piperidine-1-carboxylate]
2 | 117 nM and 255 nM |  | 71 | Cc1c(OC2CCN(C(=O)OC3(C)CC3)CC2)ncnc1N1CCn2nccc21 [Example 2, 1-Methylcyclopropyl 4-{[6-(2,3-dihydro-1H-imidazo[1,2-b]pyrazol-1-yl)-5-methylpyrimidin-4-yl]oxy}piperidine-1-carboxylate]

Further lines, the molecule ahead of its results:

Row | SMILES | EC50 | Intrinsic Activity* (cAMP) | Emax [%]
3 | Cc1c(O[C@H]2CCN(C(=O)OC3(C)CC3)C[C@H]2F)ncnc1N1CCn2nccc21 (racemic) [Example 3, 1-Methylcyclopropyl (3R,4S)-4-{[6-(2,3-dihydro-1H-imidazo[1,2-b]pyrazol-1-yl)-5-methylpyrimidin-4-yl]oxy}-3-fluoropiperidine-1-carboxylate (racemic)] | 66 nM and 68 nM | 61% | 80
4 | Cc1c(O[C@H]2CCN(C(=O)OC(C)C)C[C@H]2F)ncnc1N1CCn2nccc21 (racemic) [Example 4, Isopropyl (3R,4S)-4-{[6-(2,3-dihydro-1H-imidazo[1,2-b]pyrazol-1-yl)-5-methylpyrimidin-4-yl]oxy}-3-fluoropiperidine-1-carboxylate (racemic)] | 32 nM and 45 nM | 28% | 31
5 | Cc1c(O[C@@H]2CCN(C(=O)OC3(C)CC3)C[C@@H]2F)ncnc1N1CCn2nccc21 (single isomer, unassigned) [Example 5] | 38 nM and 36 nM and 34 nM and 49 nM and 47 nM | 68% and 81% and 61% | 76
6 | Cc1c(O[C@H]2CCN(C(=O)OC3(C)CC3)C[C@H]2F)ncnc1N1CCn2nccc21 (single isomer, unassigned) [Example 6] | 40 nM and 140 nM and 48 nM and 88 nM and 82 nM | 82% and 89% and 76% and 83% | 86
